According to patent US20090246293A1 (priority 2008, published 2009):
Like-named read-outs stand apart in the source and are kept apart here.

Legend:
[1] = tested on: Plasmopara viticola (PLASVI); assay type: in vivo; details: for Reduction in percent disease, Formul. II / Reduction in percent disease, Formul. I / Reduction in percent disease: PLASVI; for Reduction in percent disease: aldehyde derivative 100 ppm with mancozeb
[2] = tested on: Phytophthora infestans (PHYTIN); assay type: in vivo; details: for Reduction in percent disease, Formul. II / Reduction in percent disease, Formul. I: PHYTIN; for effect of Formulation I on the effectiveness of fungicides, PHYTIN: Table 20
[3] = tested on: Pseudoperonospora cubensis (PSPECU); details: in vivo
[4] = fungicide with Formulation II at 100 ppm of attractant derivative, Table 22
[5] = fungicide with Formulation I at 100 ppm, Table 18
[6] = fungicide with Formulation I at 100 ppm
[7] = fungicide with Formulation I at 100 ppm, Table 21
[8] = fungicide with Formulation II at 100 ppm, Table 21
[9] = fungicide with Formulation I at 100 ppm, Table 19
[10] = aldehyde derivative 500 ppm with mancozeb, Table 16

Compound: COCC(=O)N(c1c(C)cccc1C)[C@H](C)C(=O)OC [Mefenoxam]
- Reduction in percent disease, Formul. II [1, 4]: xx (21-35% reduction in percent disease)
- effect of Formulation I on the effectiveness of fungicides, PLASVI ([1]; fungicide with Formulation I at 100 ppm, Table 20): x (0-20% reduction in percent disease)
- Reduction in percent disease, Formul. II [2, 4]: xx (21-35% reduction in percent disease)
- Reduction in percent disease PHYTIN [2, 5]: xxxx (>50% reduction in percent disease)
- effect of Formulation I on the effectiveness of fungicides, PHYTIN [2, 6]: xx (21-35% reduction in percent disease)
- Reduction in percent disease, Formul. II [3]: x (key: x: 0-20% reduction in percent disease; xx: 21-35% reduction in percent disease; xxx: 36-50% reduction in percent disease; xxxx: >50% reduction in percent disease)

Compound: Cc1ccc(-c2c(Cl)nc(C#N)n2S(=O)(=O)N(C)C)cc1 [Cyazofamid]
- Reduction in percent disease, Formul. I [1, 7]: x (0-20% reduction in percent disease)
- Reduction in percent disease, Formul. II [1, 8]: x (0-20% reduction in percent disease)
- Reduction in percent disease PLASVI [1, 9]: x (0-20% reduction in percent disease)
- Reduction in percent disease, Formul. I [2, 7]: xx (21-35% reduction in percent disease)
- Reduction in percent disease, Formul. II [2, 8]: xxx (36-50% reduction in percent disease)
- Reduction in percent disease PHYTIN [2, 9]: x (0-20% reduction in percent disease)
- Reduction in percent disease, Formul. II [3]: x (key: x: 0-20% reduction in percent disease; xx: 21-35% reduction in percent disease; xxx: 36-50% reduction in percent disease; xxxx: >50% reduction in percent disease)

Compound: CC(=O)N/N=C/CC(C)C [Compound H]
- Reduction in percent disease ([1]; Table 13): xx (21-35% reduction in percent disease)
- Reduction in percent disease [3]: xx (key: x: 0-20% reduction in percent disease; xx: 21-35% reduction in percent disease; xxx: 36-50% reduction in percent disease; xxxx: >50% reduction in percent disease)

Compound: condensation product of urea and 2- methylbutyraldehyde [Compound Q]
- Reduction in percent disease PLASVI [1, 10]: x (0-20% reduction in percent disease)
- Reduction in percent disease PHYTIN [2, 10]: x (0-20% reduction in percent disease)
- Reduction in percent disease PSPECU [3]: x (key: x: 0-20% reduction in percent disease; xx: 21-35% reduction in percent disease; xxx: 36-50% reduction in percent disease; xxxx: >50% reduction in percent disease)

Compound: C/C(CC(C)C)=N\NC(=O)Nc1ccccc1 [Compound O]
- Reduction in percent disease PLASVI [1, 10]: x (0-20% reduction in percent disease)
- Reduction in percent disease PHYTIN [2, 10]: xx (21-35% reduction in percent disease)
- Reduction in percent disease PSPECU [3]: xx (key: x: 0-20% reduction in percent disease; xx: 21-35% reduction in percent disease; xxx: 36-50% reduction in percent disease; xxxx: >50% reduction in percent disease)

Compound: CC(C)C/C=N/NC(=O)CCCCCCCCC(=O)N/N=C/CC(C)C [Compound J]
- Reduction in percent disease ([1]; Table 15): x (0-20% reduction in percent disease)
- Reduction in percent disease [3]: xx (key: x: 0-20% reduction in percent disease; xx: 21-35% reduction in percent disease; xxx: 36-50% reduction in percent disease; xxxx: >50% reduction in percent disease)

Compound: CCCOC(=O)NCCCN(C)C [Propamocarb]
- Reduction in percent disease PLASVI [1, 5]: x (0-20% reduction in percent disease)
- Reduction in percent disease PHYTIN [2, 5]: xx (21-35% reduction in percent disease)
- Reduction in percent disease PSPECU [3]: x (key: x: 0-20% reduction in percent disease; xx: 21-35% reduction in percent disease; xxx: 36-50% reduction in percent disease; xxxx: >50% reduction in percent disease)

Compound: CCNc1nc(CC)c(C(=O)NC(C#N)c2cccs2)s1 (centres unmarked) [Ethaboxam, reference compound]
- Reduction in percent disease, Formul. I [1, 7]: x (0-20% reduction in percent disease)
- Reduction in percent disease, Formul. II [1, 8]: x (0-20% reduction in percent disease)
- Reduction in percent disease PLASVI [1, 9]: x (0-20% reduction in percent disease)
- Reduction in percent disease PHYTIN [2, 9]: x (0-20% reduction in percent disease)
- Reduction in percent disease, Formul. II [3]: x (key: x: 0-20% reduction in percent disease; xx: 21-35% reduction in percent disease; xxx: 36-50% reduction in percent disease; xxxx: >50% reduction in percent disease)

Compound: Cc1ccc(C(C)NC(=O)[C@@H](NC(=O)OC(C)C)C(C)C)cc1 (some centres unmarked) [Iprovalicarb]
- Reduction in percent disease PLASVI [1, 9]: xx (21-35% reduction in percent disease)
- Reduction in percent disease PHYTIN [2, 9]: x (0-20% reduction in percent disease)
- Reduction in percent disease PSPECU [3]: x (key: x: 0-20% reduction in percent disease; xx: 21-35% reduction in percent disease; xxx: 36-50% reduction in percent disease; xxxx: >50% reduction in percent disease)

Compound: C#CCOc1ccc(CCNC(=O)C(OCC#C)c2ccc(Cl)cc2)cc1OC (centres unmarked) [Mandipropamid]
- Reduction in percent disease PLASVI [1, 9]: xx (21-35% reduction in percent disease)
- Reduction in percent disease PHYTIN [2, 9]: x (0-20% reduction in percent disease)
- Reduction in percent disease PSPECU [3]: x (key: x: 0-20% reduction in percent disease; xx: 21-35% reduction in percent disease; xxx: 36-50% reduction in percent disease; xxxx: >50% reduction in percent disease)

Compound: CO/C=C(/C(=O)OC)c1ccccc1Oc1cc(Oc2ccccc2C#N)ncn1 [Azoxystrobin]
- Reduction in percent disease PLASVI [1, 5]: x (0-20% reduction in percent disease)
- Reduction in percent disease PHYTIN [2, 5]: xx (21-35% reduction in percent disease)
- effect of Formulation I on the effectiveness of fungicides, PHYTIN [2, 6]: xxx (36-50% reduction in percent disease)
- Reduction in percent disease PSPECU [3]: x (key: x: 0-20% reduction in percent disease; xx: 21-35% reduction in percent disease; xxx: 36-50% reduction in percent disease; xxxx: >50% reduction in percent disease)
- effect of Formulation I on the effectiveness of fungicides, PSPECU [3]: x (key: x: 0-20% reduction in percent disease; xx: 21-35% reduction in percent disease; xxx: 36-50% reduction in percent disease; xxxx: >50% reduction in percent disease)

Compound: CO/N=C(/C(=O)OC)c1ccccc1COc1ccccc1C [Kresoxim-methyl]
- Reduction in percent disease PHYTIN [2, 5]: x (0-20% reduction in percent disease)
- Reduction in percent disease PSPECU [3]: x (key: x: 0-20% reduction in percent disease; xx: 21-35% reduction in percent disease; xxx: 36-50% reduction in percent disease; xxxx: >50% reduction in percent disease)
- Reduction in percent disease, Formul. II [3]: x (key: x: 0-20% reduction in percent disease; xx: 21-35% reduction in percent disease; xxx: 36-50% reduction in percent disease; xxxx: >50% reduction in percent disease)

Compound: CC(C)CC=NNC(=O)c1cccc(C(=O)N/N=C/CC(C)C)c1 [Compound C]
- Reduction in percent disease ([1]; Table 13): xx (21-35% reduction in percent disease)
- Reduction in percent disease ([1]; Table 15): xx (21-35% reduction in percent disease)
- Reduction in percent disease [3]: xxx (key: x: 0-20% reduction in percent disease; xx: 21-35% reduction in percent disease; xxx: 36-50% reduction in percent disease; xxxx: >50% reduction in percent disease)

Compound: CC(C)[C@H](NC(=O)O)C(=O)N[C@H](C)c1nc2ccc(F)cc2s1 [Benthiavalicarb]
- Reduction in percent disease PLASVI [1, 9]: x (0-20% reduction in percent disease)
- Reduction in percent disease PHYTIN [2, 9]: x (0-20% reduction in percent disease)
- Reduction in percent disease PSPECU [3]: xx (key: x: 0-20% reduction in percent disease; xx: 21-35% reduction in percent disease; xxx: 36-50% reduction in percent disease; xxxx: >50% reduction in percent disease)

Compound: O=C(NCc1ncc(C(F)(F)F)cc1Cl)c1c(Cl)cccc1Cl [Fluopicolide]
- Reduction in percent disease, Formul. II [1, 4]: x (0-20% reduction in percent disease)
- effect of Formulation I on the effectiveness of fungicides, PHYTIN [2, 6]: xx (21-35% reduction in percent disease)
- effect of Formulation I on the effectiveness of fungicides, PSPECU [3]: x (key: x: 0-20% reduction in percent disease; xx: 21-35% reduction in percent disease; xxx: 36-50% reduction in percent disease; xxxx: >50% reduction in percent disease)

Compound: condensation product of urea and 3,3- dimethylbutyraldehyde [Compound R]
- Reduction in percent disease PLASVI [1, 10]: x (0-20% reduction in percent disease)
- Reduction in percent disease PHYTIN [2, 10]: xx (21-35% reduction in percent disease)
- Reduction in percent disease PSPECU [3]: x (key: x: 0-20% reduction in percent disease; xx: 21-35% reduction in percent disease; xxx: 36-50% reduction in percent disease; xxxx: >50% reduction in percent disease)

Compound: CC(C)C/C=N/NC(=O)CCCCC(=O)N/N=C/CC(C)C [Compound N]
- Reduction in percent disease ([1]; Table 15): x (0-20% reduction in percent disease)
- Reduction in percent disease [3]: xx (key: x: 0-20% reduction in percent disease; xx: 21-35% reduction in percent disease; xxx: 36-50% reduction in percent disease; xxxx: >50% reduction in percent disease)

Compound: CC(C)C/C=N/NC(=O)C(=O)N/N=C/CC(C)C [Compound G]
- Reduction in percent disease ([1]; Table 13): xx (21-35% reduction in percent disease)
- Reduction in percent disease [3]: xxx (key: x: 0-20% reduction in percent disease; xx: 21-35% reduction in percent disease; xxx: 36-50% reduction in percent disease; xxxx: >50% reduction in percent disease)

Compound: CC(C)C/C=N/NC(=O)N/N=C/CC(C)C [Compound F]
- Reduction in percent disease ([1]; Table 13): x (0-20% reduction in percent disease)
- Reduction in percent disease [3]: xx (key: x: 0-20% reduction in percent disease; xx: 21-35% reduction in percent disease; xxx: 36-50% reduction in percent disease; xxxx: >50% reduction in percent disease)

Compound: CC(C)C/C=N/NC(N)=O [Compound D]
- Reduction in percent disease ([1]; Table 13): x (0-20% reduction in percent disease)
- Reduction in percent disease [3]: xx (key: x: 0-20% reduction in percent disease; xx: 21-35% reduction in percent disease; xxx: 36-50% reduction in percent disease; xxxx: >50% reduction in percent disease)

Compound: CC(C)C/C=N/NC(=O)CCCC(=O)N/N=C/CC(C)C [Compound E]
- Reduction in percent disease ([1]; Table 13): xx (21-35% reduction in percent disease)
- Reduction in percent disease [3]: xxx (key: x: 0-20% reduction in percent disease; xx: 21-35% reduction in percent disease; xxx: 36-50% reduction in percent disease; xxxx: >50% reduction in percent disease)

Compound: O=C1c2ccccc2C(=O)N1SC(Cl)(Cl)Cl [Folpet]
- Reduction in percent disease, Formul. I ([2]; fungicide with Formulation I at 100 ppm of attractant derivative, Table 22): x (0-20% reduction in percent disease)
- Reduction in percent disease, Formul. I [3]: x (key: x: 0-20% reduction in percent disease; xx: 21-35% reduction in percent disease; xxx: 36-50% reduction in percent disease; xxxx: >50% reduction in percent disease)

Compound: COC(=O)N(OC)c1ccccc1COc1ccn(-c2ccc(Cl)cc2)n1 [Pyraclostrobin]
- Reduction in percent disease PHYTIN [2, 5]: x (0-20% reduction in percent disease)
- Reduction in percent disease PSPECU [3]: x (key: x: 0-20% reduction in percent disease; xx: 21-35% reduction in percent disease; xxx: 36-50% reduction in percent disease; xxxx: >50% reduction in percent disease)
